In patent publication US20090047246A1, “NOVEL INHIBITORS OF HEPATITIS C VIRUS REPLICATION” (InterMune, Inc., priority 2007, published 2009) one finds IC50 data, which are given here for 57 compounds.

Like-named read-outs stand apart in the source and are kept apart here.

For the assay, the target named is T1, HCV NS3 helicase (Hepatitis C virus genotype 1b, UniProt P26663).
T1 construct: full-length NS3 (1-631), purified at Array BioPharma
Put plainly: HCV Helicase Prompt FRET Assay (Example A). Type of assay: biochemical. The settings on record: read-out: IC50 Activity. The protocol: Test compounds were diluted to 2.5 mM by adding 6 uL of a 10 mM solution of the compound to 18 uL of DMSO in a 384-well Costar polypropylene plate. Serial dilutions (2.5×) were performed in the plate using DMSO as the diluent. 1 ul of solution was transferred from each well to a new 384-well Costar polypropylene plate.
A 2× mixture was prepared containing 100 nM helicase substrate, 500 nM helicase capture strand (CS), and 600 μM ATP by diluting stock solutions with assay buffer consisting of 25 mM MOPS, pH 7.0, and 1.5 mM MgCl2, 0.005% (v/v) Triton X-100. Stock helicase substrate was prepared by annealing a FAM-labeled oligonucleotide to a BHQ-1 labeled oligonucleotide, which were both custom synthesized and HPLC-purified at Biosearch Technologies. The FAM-labeled and BHQ-labeled oligonucleotide had the following sequences:
The helicase capture strand was custom synthesized and purified at Integrated DNA Technologies. The helicase capture strand had the following sequence:
The ATP solution was prepared in MilliQ water, pH adjusted to approximately 7 with NaOH. ATP powder was obtained from Sigma (A-7699). The concentration was determined via A260 (ext. coeff=15,400 M^−1cm^−1).
11.5 μL of assay buffer was added to all wells of the plate containing luL of test compound. 5 μL of the Compound/assay buffer mixture was added to a black polystyrene 384-well Proxiplate. A 4× Enzyme solution was prepared by diluting enzyme stock containing full-length NS3 (1-631), purified at Array BioPharma, with assay buffer. 5 μL of the 4× Enzyme solution was added to the Proxiplate and incubated for 5 minutes (for control wells lacking enzyme, assay buffer was used instead). 10 μL of 2× substrate/CS/ATP mixture was then added to all wells of Proxiplate. The final assay conditions included 50 nM Substrate, 250 nM Capture Strand, 300 μM ATP, 5 or 6 nM Enzyme, and 2% (v/v) DMSO. The reaction proceeded for 70 cycles (˜30 min.) on an Envision at room temperature. The plate was read using the Envision (top mirror=FITC; Excitation filter=FITC 485; Emission filter=FITC 535). The fluorescence intensity was recorded for a total of 30 minutes. The initial rates of the reactions was calculated and used to calculate IC50 values. The IC50 curve fitting was performed using either a 4-parameter or 5-parameter logistic equation.

Setting [1] is: HCV NS3 helicase, tables do not say whether Example A or Example B assay.
[2] abbreviates: Table 34, compounds made using Schemes 51-52.
Where [3] appears, read: Table 36, compounds made using Scheme 54.
[4] abbreviates: Table 32, compounds made using Schemes 46-49.
The mark [5] stands for this setting: Table 21, compounds made using Scheme 28.
Where [6] appears, read: Table 37, compounds made using Scheme 55.

T1 sequence (P26663 1027-1657): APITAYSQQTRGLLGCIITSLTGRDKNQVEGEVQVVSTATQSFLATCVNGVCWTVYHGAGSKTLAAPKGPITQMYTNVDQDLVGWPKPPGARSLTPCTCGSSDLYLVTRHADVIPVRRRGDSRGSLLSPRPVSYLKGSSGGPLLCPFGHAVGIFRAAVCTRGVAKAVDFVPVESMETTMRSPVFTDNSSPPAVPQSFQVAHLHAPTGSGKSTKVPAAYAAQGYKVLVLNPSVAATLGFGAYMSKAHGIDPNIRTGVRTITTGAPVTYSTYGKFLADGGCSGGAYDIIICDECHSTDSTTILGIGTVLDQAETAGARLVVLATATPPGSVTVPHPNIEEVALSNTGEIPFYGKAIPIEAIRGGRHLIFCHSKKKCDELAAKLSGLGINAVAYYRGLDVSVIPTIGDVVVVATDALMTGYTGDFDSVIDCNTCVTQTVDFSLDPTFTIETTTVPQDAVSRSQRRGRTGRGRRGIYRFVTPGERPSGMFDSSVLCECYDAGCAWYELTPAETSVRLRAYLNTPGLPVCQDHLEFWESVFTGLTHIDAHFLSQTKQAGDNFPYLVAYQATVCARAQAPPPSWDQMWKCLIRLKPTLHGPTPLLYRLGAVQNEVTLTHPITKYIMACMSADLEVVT

By IC50 is commonly meant the concentration at which inhibition is half-maximal. Regarding `CN(Cc1ccccc1)c1ccc(-n2c(C(=O)c3ccc(-c4ccc(Cl)c(Cl)c4)cc3)c(CC(=O)O)c3ccccc32)cc1` [Example 738], the IC50 under setting [1] was 10 to 50 µM. Take `Cc1cc([N+](=O)[O-])ccc1-n1cc(C(Cc2ccccc2)C(=O)O)c2cc(Br)ccc21` (stereo not drawn) [Example 398]: the IC50 under setting [1] is less than 10 µM. For the compound `O=C(O)Cc1cn(Cc2cccc(I)c2)c2ccc(OCc3ccccc3)cc12` [Example 123], the IC50 under setting [1] was less than 10 µM. Consider `COC(=O)C(=O)c1cn(Cc2csc3ccc(Cl)cc23)c2cc(N3CCCC(OC(C)=O)C3)ccc12` (stereo not drawn) [Example 696], for which the IC50 under setting [2] is 10 to 50 µM. As for `O=C(O)Cc1c(C(=O)c2cccc(-c3ccnc(Cl)c3)c2)[nH]c2ccccc12` [Example 238], under setting [1], the IC50 is 10 to 50 µM.

On to `O=C(O)Cc1c(C(=O)c2ccc(-c3ccccc3)cc2)n(CC2CC2)c2ccccc12` [Example 218], for which, under setting [1], the IC50 is less than 10 µM. As for `Nc1cc(N)cc(-c2ccc3c(CC(=O)O)cn(Cc4csc5ccc(OC(F)(F)F)cc45)c3c2)c1` [Example 719], the IC50 under setting [3] was 10 to 50 µM. Turning to `COc1cccc(Oc2ccc(Cn3cc(CC(=O)O)c4ccccc43)cc2)c1OC` [Example 509], the IC50 under setting [1] was less than 10 µM. `CC(C)c1cccc(-c2cccc(C(=O)c3[nH]c4ccccc4c3CC(=O)O)c2)c1` [Example 227]: under setting [1], the IC50 is less than 10 µM. As for `COc1ccc(Oc2cccc(Cn3cc(CC(=O)O)c4ccccc43)c2)cc1` [Example 480], the IC50 under setting [1] was less than 10 µM. On to `C=CCn1c(Cc2csc3ccc(Cl)cc23)c(CC(=O)O)c2ccc(OCc3ccccc3)cc21` [Example 367], for which, under setting [1], the IC50 was less than 10 µM. Take `O=C(O)Cc1c(Cc2ccc(-c3ccc(Cl)c(Cl)c3)cc2)[nH]c2ccccc12` [Example 280]: the IC50 under setting [1] was less than 10 µM.

Take `O=C(O)Cc1cn(Cc2cccc(Oc3cccc(F)c3)c2)c2ccccc12` [Example 473]: under setting [1], the 50% inhibitory concentration (IC50) is less than 10 µM.

On to `CC(C)(C)OC(=O)Nc1ncc(-c2ccc3c(CC(=O)O)cn(Cc4csc5ccc(Cl)cc45)c3c2)s1` [Example 657], for which, under setting [4], the IC50 is less than 10 µM. Take `Nc1cc(N)cc(-c2ccc3c(CC(=O)O)cn(Cc4csc5c(Cl)c(Cl)ccc45)c3c2)c1` [Example 724]: under setting [3], the IC50 fell in the range of 10 to 50 µM. As for `COC(OC)c1cc([N+](=O)[O-])ccc1-n1cc(CC(=O)O)c2cc(Br)ccc21` [Example 338], the IC50 under setting [1] was greater than 50 µM. As for `CN(c1ccc(Cl)cc1)c1ccc(Cn2cc(CC(=O)O)c3ccccc32)cc1` [Example 561], the IC50 under setting [5] was less than 10 µM. Consider `NC(=O)Nc1ccccc1-c1ccc2c(CC(=O)O)cn(Cc3csc4ccc(Cl)cc34)c2c1` [Example 769], for which, under setting [6], the IC50 was greater than 50 µM. Take `CC(C)c1ccc(Cn2c(C(N)=O)c(CC(=O)O)c3ccccc32)cc1` [Example 665]: the IC50 under setting [4] was 10 to 50 µM. For the compound `COC(=O)C=Cc1cn(-c2ccc([N+](=O)[O-])cc2C)c2cnc(OCc3ccccc3)cc12` [Example 329], under setting [1], the IC50 is greater than 50 µM. Consider `O=C(O)Cc1cn(Cc2cccc(Oc3cccc(Cl)c3Cl)c2)c2ccccc12` [Example 595], for which the IC50 (Table 23, compounds made using Scheme 30) is less than 10 µM. As to `CN(c1cccc(Cn2cc(CC(=O)O)c3ccccc32)c1)c1cc(C(F)(F)F)ccc1C(F)(F)F` [Example 546], the IC50 under setting [1] was less than 10 µM. For the compound `COC(=O)C(NC(=O)c1c[nH]cn1)c1cn(Cc2ccc(C(C)C)cc2)c2ccccc12` (stereo not drawn) [Example 421], the IC50 under setting [1] is greater than 50 µM.

On to `O=C(O)Cc1cn(Cc2csc3c(Cl)c(Cl)ccc23)c2cc(Br)ccc12` [Example 780], for which, under setting [3], the IC50 was greater than 50 µM. For `Nc1ncc(-c2ccc3c(CC(=O)O)cn(Cc4csc5ccc(Cl)cc45)c3c2)s1` [Example 656], the IC50 under setting [4] lay within 10 to 50 µM.

In the case of `CN(c1ccc(Cn2cc(CC(=O)O)c3ccccc32)cc1)c1cc(F)ccc1F` [Example 570], the IC50 under setting [5] was less than 10 µM. As to `CC(C)c1ccc(Cn2c(C(=O)NCCc3ccccn3)c(CC(=O)O)c3ccccc32)cc1` [Example 439], the IC50 under setting [1] lay within 10 to 50 µM. As for `Cc1cc([N+](=O)[O-])ccc1-n1cc(C(=O)C(=O)N2CCCC2)c2cc(Br)ccc21` [Example 401], the IC50 under setting [1] is greater than 50 µM.

In the case of `COC(=O)CC1CN(c2ccc([N+](=O)[O-])cc2C)c2ccc(Br)cc21` (stereo not drawn) [Example 393], under setting [1], the half-inhibitory concentration (IC50) lay in the range of 10 to 50 µM. `Nc1nc(-c2ccc3c(CC(=O)O)cn(Cc4csc5ccc(Cl)cc45)c3c2)c2nc[nH]c2n1` [Example 639]: the IC50 (Table 31, compounds made using Schemes 38-45) fell in the range of 10 to 50 µM. On to `CN(C)C(=O)c1cccc(-c2ccc3c(CC(=O)O)cn(Cc4csc5ccc(Cl)cc45)c3c2)c1` [Example 761], for which the IC50 under setting [6] is 10 to 50 µM.

As to `CSc1cccc(-c2cccc(Cc3[nH]c4ccccc4c3CC(=O)O)c2)c1` [Example 297], the IC50 under setting [1] was less than 10 µM. `CC(=O)Nc1ccccc1-c1ccc2c(CC(=O)O)cn(Cc3csc4ccc(Cl)cc34)c2c1` [Example 768]: the IC50 under setting [6] is 10 to 50 µM. For `COc1ccc(Oc2ccc(Cn3cc(CC(=O)O)c4ccccc43)cc2)cc1` [Example 501], the IC50 under setting [1] was less than 10 µM.

`CN(c1ccc(Cn2cc(CC(=O)O)c3ccccc32)cc1)c1ccc(C(F)(F)F)cc1` [Example 567]: the IC50 under setting [5] is less than 10 µM. With `O=C(O)Cc1cn(Cc2csc3ccc(Cl)cc23)c2cc(-c3cccc(CO)c3)ccc12` [Example 760], the IC50 under setting [6] was in the range of 10 to 50 µM. Take `O=C(O)Cc1cn(-c2ccc3sccc3c2)c2ccccc12` [Example 147]: the IC50 under setting [1] fell in the range of 10 to 50 µM. For the compound `Cc1cc([N+](=O)[O-])ccc1-n1cc(CC(=O)O)c2cc(Br)cnc21` [Example 324], the IC50 under setting [1] is greater than 50 µM. On the same count and under the same terms, the figure for `CCNC(=O)Cc1cn(Cc2cccc(OCc3ccccc3)c2)c2ccc(OCc3ccccc3)cc12` [Example 186] is 10 to 50 µM.

As to `O=C(O)Cc1cn(Cc2csc3ccc(Cl)cc23)c2cc(-c3ccc4nc[nH]c4c3)ccc12` [Example 668], the IC50 (Table 33, compounds made using Scheme 50) fell in the range of 10 to 50 µM.

`Cc1cc([N+](=O)[O-])ccc1-n1cc(/C=C/C(=O)O)c2cc(/C=C/C(=O)O)cnc21` [Example 323]: under setting [1], the IC50 is greater than 50 µM.

As to `CC(C)c1ccc(Cn2c(C(=O)NC3CCNCC3)c(CC(=O)O)c3cc(Br)ccc32)cc1` [Example 438], under setting [1], the IC50 was in the range of 10 to 50 µM.

As for `O=C(O)Cc1cn(-c2ccc(NCc3ccccc3)cc2)c2ccccc12` [Example 161], the IC50 under setting [1] was less than 10 µM. As to `O=C(O)Cc1cn(Cc2ccc(-c3ccccc3)cc2)c2ccc(OCc3ccccc3)cc12` [Example 122], under setting [1], the IC50 is less than 10 µM. For the compound `O=C(O)Cc1cn(CC(=O)O)c2cc(-c3ccccc3)ccc12` [Example 354], the IC50 under setting [1] is greater than 50 µM.

For `Cc1cc([N+](=O)[O-])ccc1-n1cc(C(O)(C(=O)N2CCCC2)C(F)(F)F)c2cc(Br)ccc21` (stereo not drawn) [Example 402], the IC50 under setting [1] is greater than 50 µM.

For `CC(C)c1ccc(Cn2c(C(=O)NCc3ccc(-c4ccccc4)cc3)c(CC(=O)O)c3cc(Br)ccc32)cc1` [Example 441], the IC50 under setting [1] lay in the range of 10 to 50 µM.

With `CC(C)c1ccc(Cn2c(C(=O)N3CCCC3)c(CC(=O)O)c3cc(Br)ccc32)cc1` [Example 431], under setting [1], the IC50 lay within 10 to 50 µM. `CC(C)c1ccc(Cn2cc(C(Cc3ccccc3)C(=O)NS(=O)(=O)C3CC3)c3cc(Br)ccc32)cc1` (stereo not drawn) [Example 686]: the IC50 under setting [2] was less than 10 µM. Turning to `CN(c1ccc(Cn2cc(CC(=O)O)c3ccccc32)cc1)c1cccc(F)c1F` [Example 568], under setting [5], the IC50 was less than 10 µM. `CC(C)Oc1ccc2scc(Cn3cc(CC(=O)O)c4cc(Br)ccc43)c2c1` [Example 141]: the IC50 under setting [1] is 10 to 50 µM. As for `CCOC(=O)Cc1cn(Cc2ccc(Oc3ccc(Cl)cc3)cc2)c2cc(-c3cc(N)cc(N)c3)ccc12` [Example 613], the IC50 (Table 25, compounds made using Scheme 32) lay in the range of 10 to 50 µM.

For the compound `O=C(O)Cc1c(C(=O)c2ccc(-c3ccncc3)cc2)[nH]c2ccccc12` [Example 247], the IC50 under setting [1] lay within 10 to 50 µM. With `O=C(O)Cc1cn(Cc2csc3ccc(Cl)cc23)c2ccc(Br)cc12` [Example 100], under setting [1], the IC50 lay in the range of 10 to 50 µM. For the compound `O=C(O)Cc1cn(Cc2csc3ccc(Cl)cc23)c2cc(OCc3ccccc3)ccc12` [Example 340], under setting [1], the IC50 is less than 10 µM.

Turning to `O=C(O)Cc1cn(Cc2csc3cc(Cl)ccc23)c2cc(Br)ccc12` [Example 785], the IC50 under setting [3] was greater than 50 µM. Regarding `COC(=O)/C=C/c1cnc2c(c1)c(CC(=O)O)cn2-c1ccc(NCCC(=O)OC)cc1C` [Example 334], the IC50 under setting [1] fell in the range of 10 to 50 µM.
